Test results taken from US20120083599A1 (UNIVERSITY OF NOTTINGHAM, priority 2009, published 2012).
Where two headings read alike, the source gives them in different places.

What was measured:
avidin [1] = molecular target: T1, avidin (Gallus gallus, UniProt P02701); test: Binding to avidin after click chemistry attachment of a fluorophore (native gel)
Protocol: 2) With protein (avidin) present: 0.29 mL 2-azidiobiotin solution (3.5 mM in Buffer A) was diluted in 0.71 mL Buffer A, then 1 mL avidin solution (0.21 mM) was added. The mixed solution was put in a shaker (25° C., 100 rpm) for 1 h. Then 0.5 mL alkynyl tag solution (10 mM in dioxane), 0.5 mL CuSO4-TTA solution (10 mM in ^tBuOH:H2O (4:1) solvents), 0.2 mL TCEP.HCl solution (50 mM in H2O), 0.5 mL NaHCO3 solution (200 mM in H2O), 0.25 mL ^tBuOH, 1 mL H2O were added to the reaction mixture. The mixture was put on the shaker (25° C., 100 rpm) for 2 h, then stored at 4° C. Buffer A: pH 7.4 20 mM phosphate, 150 mM NaCl buffer.

avidin [2] = molecular target: T1, avidin; test: Binding affinity for avidin by isothermal titration calorimetry
biotin ligase (BirA) = biotin ligase (BirA) (Escherichia coli, UniProt P06709); test: Addition to acceptor peptide using BirA biotin ligase (HPLC); type: biochemical, E. coli; conditions: for Substrate for BirA: biotin ligase (BirA) from E. coli
Chain of biotin ligase (BirA) (P06709 whole entry): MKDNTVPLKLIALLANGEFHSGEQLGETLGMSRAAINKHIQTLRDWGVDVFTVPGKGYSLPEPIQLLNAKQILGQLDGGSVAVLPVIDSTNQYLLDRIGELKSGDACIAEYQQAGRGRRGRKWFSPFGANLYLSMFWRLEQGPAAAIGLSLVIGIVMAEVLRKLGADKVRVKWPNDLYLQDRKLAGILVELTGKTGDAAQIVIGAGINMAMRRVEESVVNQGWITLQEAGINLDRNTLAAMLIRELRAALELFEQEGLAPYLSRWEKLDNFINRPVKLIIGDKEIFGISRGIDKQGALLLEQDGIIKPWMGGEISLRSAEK

other biotin ligases = conditions: cited from earlier work
biotin ligase [3] = molecular target: T2, biotin ligase (Saccharomyces cerevisiae, UniProt P48445); conditions: cited from earlier work
T2 sequence (P48445 1-690): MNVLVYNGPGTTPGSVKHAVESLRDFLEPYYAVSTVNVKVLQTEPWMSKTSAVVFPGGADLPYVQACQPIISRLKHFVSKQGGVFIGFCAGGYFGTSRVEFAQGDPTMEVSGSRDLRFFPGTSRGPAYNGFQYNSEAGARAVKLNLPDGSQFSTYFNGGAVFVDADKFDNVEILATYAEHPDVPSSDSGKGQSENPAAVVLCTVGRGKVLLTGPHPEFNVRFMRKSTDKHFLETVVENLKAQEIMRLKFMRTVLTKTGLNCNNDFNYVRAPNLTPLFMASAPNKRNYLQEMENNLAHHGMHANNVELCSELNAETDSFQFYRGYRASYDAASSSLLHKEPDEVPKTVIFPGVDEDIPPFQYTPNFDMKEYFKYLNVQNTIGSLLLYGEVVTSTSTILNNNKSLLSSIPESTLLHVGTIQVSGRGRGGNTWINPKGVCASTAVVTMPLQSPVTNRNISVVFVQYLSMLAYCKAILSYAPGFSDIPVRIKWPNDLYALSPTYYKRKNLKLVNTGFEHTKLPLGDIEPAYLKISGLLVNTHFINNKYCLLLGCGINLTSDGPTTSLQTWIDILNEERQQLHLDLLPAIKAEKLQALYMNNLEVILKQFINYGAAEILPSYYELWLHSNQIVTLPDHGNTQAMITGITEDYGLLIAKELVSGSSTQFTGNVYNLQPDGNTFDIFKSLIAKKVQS

biotin ligase [4] = conditions: cited from earlier work
BirA = BirA (Escherichia coli, UniProt P06709); conditions: cited from earlier work
Chain of BirA (P06709 whole entry): as the sequence (P06709 whole entry) above

T1 sequence (P02701 25-152, species assumed): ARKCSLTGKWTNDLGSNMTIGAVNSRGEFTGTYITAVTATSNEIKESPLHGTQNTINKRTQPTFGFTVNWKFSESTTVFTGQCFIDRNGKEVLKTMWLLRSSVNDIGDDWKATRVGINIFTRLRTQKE

For 6-Azidodesthiobiotin, the “Binds to avidin once covalently modified” value (avidin [1]) was “No”, the “Affinity for avidin (in words)” value (avidin [2]) was “low affinities” and the Binds to avidin (avidin [2]) was “Very weak”. The “Substrate for BirA” value (biotin ligase (BirA)) was “not substrates” and the “Substrate for BirA” value (biotin ligase (BirA); listed as E 6-azido-desthiobiotin) was “No”.
With 8-Azidodesthiobiotin the “Binds to avidin once covalently modified” value (avidin [1]) was “No”, the “Affinity for avidin (in words)” value (avidin [2]) was “low affinities” and the Binds to avidin (avidin [2]) was “Very weak”. The “Substrate for other biotin ligases” value (other biotin ligases) was “Yes”, the “Substrate for BirA” value (biotin ligase (BirA)) was “not substrates” and the “Substrate for BirA” value (biotin ligase (BirA); listed as D 8-azido-desthiobiotin) was “No”.
For [N-]=[N+]=NC(CCC[C@@H]1SC[C@@H]2NC(=O)N[C@@H]21)C(=O)O (stereo partly shown) [2-azidobiotin], the “Binds to avidin once covalently modified” value (avidin [1]) was “able to binded to avidin”, the “Binds to avidin once covalently modified” value (avidin [1]; listed as 2 Azidobiotin) was “Yes” and the “Affinity for avidin (in words)” value (avidin [2]) was “moderate-good affinity”. The Binds to avidin (avidin [2]) was “Yes”, the Kd (avidin [2]; ITC, pH 7.4, 20 mM phosphate, 150 mM NaCl) was roughly 100 nM and the “Level of conversion to acceptor peptide adduct by BirA, compared with biotin” value (biotin ligase (BirA); HPLC, 30 C, 1 h) was “very similar to that of biotin”. The “Substrate for BirA” value (biotin ligase (BirA)) was “Yes”.
In the case of O=C(O)CCCC[C@@H]1SC[C@@H]2NC(=O)N[C@@H]21 [biotin], the Binds to avidin (avidin [2]) is listed as “Yes”, the “Substrate for other biotin ligases” value (other biotin ligases) is listed as “Yes” and the “Substrate for BirA” value (biotin ligase (BirA)) is listed as “Yes”.
In the case of C#CCN1C(=O)N[C@H]2CS[C@@H](CCCCC(=O)O)[C@H]21 [cis-propargyl biotin], the “Substrate of Saccharomyces cerevisiae biotin ligase” value (biotin ligase [3]) is listed as “could utilise”, the “Binds to avidin once covalently modified” value (avidin [1]) is listed as “No” and the “Substrate of Pyrococcus horikoshii biotin ligase” value (biotin ligase [4]) is listed as “could use”. For the same compound, the Binds to avidin (avidin [2]) was “No/very weak”, the “Substrate for other biotin ligases” value (other biotin ligases) was “Yes” and the “Substrate for BirA” value (biotin ligase (BirA)) was “No”.
In the case of C[C@@H]1NC(=O)N[C@@H]1CCCCCC(=O)O [desthiobiotin], the “Substrate of Pyrococcus horikoshii biotin ligase” value (biotin ligase [4]) is given as “could use”.
In the case of O=C(O)CCCC[C@@H]1SC[C@@H]2CC(=O)C[C@@H]21 [ketone biotin, Ketone biotin], the “BirA ligation yield (product inhibition)” value (BirA) is given as roughly 50%, the “Binds to avidin once covalently modified” value (avidin [1]) is given as “No” and the “Substrate for BirA” value (biotin ligase (BirA)) is given as “Yes”.
